# Assay results published in patent US20260293900A1 (priority 2023, published 2026).
# How the values were obtained:
# Phytophthora infestans = assay type: in vivo, Phytophthora infestans (on tomato leaf disks); conditions: 200 ppm; tomato leaf disks, preventative, inoculated 1 day after application; assessed 5-7 days after application
# Plasmopara viticola = assay type: in vivo, Plasmopara viticola (on grape vine leaf disks); conditions: 200 ppm; grape vine leaf disks, preventative, inoculated 1 day after application; assessed 6-8 days after application
# Pythium ultimum = test: Pythium ultimum/Liquid Culture (Seedling Damping Off); assay type: cell-based; conditions: Globisporangium ultimum, read-out: control of Pythium ultimum compared to untreated control (inhibition of growth)
Compound,control of Phytophthora infestans compared to untreated control (percent disease control) (Phytophthora infestans),control of Plasmopara viticola compared to untreated control (percent disease control) (Plasmopara viticola),inhibition at 20 ppm (Pythium ultimum) [%]
"COCN(C(=O)c1ccn2ncc(-c3ccc(NC(=O)OC)nc3)c2c1)c1ccc(F)c(OC)c1 [Compound 1, methyl N-[5-[5-[(4-fluoro-3-methoxy-phenyl)-(methoxymethyl)carbamoyl]pyrazolo[1,5-a]pyridin-3-yl]-2-pyridyl]carbamate]",at least 80%,at least 80%,≥ 80
"COC(=O)Nc1ccc(-c2cnn3ccc(C(=O)N(CC#N)c4ccc(Cl)c(OC)c4)cc23)cn1 [Compound 2, methyl N-[5-[5-[(4-chloro-3-methoxy-phenyl)-(cyanomethyl)carbamoyl]pyrazolo[1,5-a]pyridin-3-yl]-2-pyridyl]carbamate]",at least 80%,,≥ 80
"COC(=O)Nc1ccc(-c2cnn3ccc(C(=O)N(CC#N)c4ccc(F)c(OC)c4)cc23)cn1 [Compound 3, methyl N-[5-[5-[cyanomethyl-(4-fluoro-3-methoxy-phenyl)carbamoyl]pyrazolo[1,5-a]pyridin-3-yl]-2-pyridyl]carbamate]",at least 80%,at least 80%,
"COC(=O)Nc1ccc(-c2cnn3ccc(C(=O)N(C)c4ccc(F)c(OC)c4)cc23)cn1 [Compound 4, methyl N-[5-[5-[(4-fluoro-3-methoxy-phenyl)-methyl-carbamoyl]pyrazolo[1,5-a]pyridin-3-yl]-2-pyridyl]carbamate]",at least 80%,at least 80%,≥ 80
"COC(=O)Nc1ccc(-c2cnn3ccc(C(=O)N(C)c4ccc(Cl)cc4)cc23)cc1 [Compound 5, methyl N-[4-[5-[(4-chlorophenyl)-methyl-carbamoyl]pyrazolo[1,5-a]pyridin-3-yl]phenyl]carbamate]",,,≥ 80
"CC(=O)Nc1ccc(-c2cnn3ccc(C(=O)N(C)c4ccc(Cl)cc4)cc23)cc1 [Compound 6, 3-(4-acetamidophenyl)-N-(4-chlorophenyl)-N-methyl-pyrazolo[1,5-a]pyridine-5-carboxamide]",,,≥ 80
